Experimental data as given in patent US10016427B2, “Hydrochloride salt of((1S,2S,4R)-4-{4-[(1S)-2,3-dihydro-1H-inden-1-ylamino]-7H-pyrrolo[2,3-D]pyrimidin-7-YL}-2-hydroxycyclopentyl) methyl sulfamate” (Millennium Pharmaceuticals, Inc., priority 2009, dated 2018).
Structures can show the parent of a compound that is named as a salt.

Assays:
[1] = Solid state storage stability (Peak Area % measured by HPLC); format: physicochemical; conditions: for stability on storage: compared with the potassium salt; for Peak Area % 6 weeks / Peak Area % Initial / Peak Area % 15 days: solid state; for Peak Area % Initial: -20° C. freezer
Description: The following table summarizes stability data obtained (Peak Area % measured by HPLC) for solid state ((1S,2S,4R)-4-{4-[(1S)-2,3-dihydro-1H-inden-1-ylamino]-7H-pyrrolo[2,3-d]pyrimidin-7-yl}-2-hydroxycyclopentyl)methyl sulfamate.

[2] = Solubility of Form 1 in water; format: physicochemical
Description: The resulting solution has a pH of about 2.33.

SMILES	stability on storage [1]	Peak Area % 6 weeks ([1]; 5° C. refrigerator)	Peak Area % 6 weeks ([1]; 40° C./75% RH)	Peak Area % 6 weeks ([1]; 60° C./75% RH)	Peak Area % Initial [1]	solubility ([2]; pH 2.33, thermodynamic from solid, in water)	pH of the resulting solution ([2]; solution resulting from dissolution in water)	Peak Area % 15 days ([1]; 5° C. refrigerator)	Peak Area % 15 days ([1]; 40° C./75% RH)	Peak Area % 15 days ([1]; 60° C./75% RH)
NS(=O)(=O)OC[C@@H]1C[C@@H](n2ccc3c(N[C@H]4CCc5ccccc54)ncnc32)C[C@@H]1O [HCl Salt Form 1, ((1S,2S,4R)-4-{4-[(1S)-2,3-dihydro-1H-inden-1-ylamino]-7H-pyrrolo[2,3-d]pyrimidin-7-yl}-2-hydroxycyclopentyl)methyl sulfamate hydrochloride Form 1]	increased stability on storage	99.3%	98.7%	91.3%	99.2%	~7800 µg/mL	about 2.33			
NS(=O)(=O)OC[C@@H]1C[C@@H](n2ccc3c(N[C@H]4CCc5ccccc54)ncnc32)C[C@@H]1O [HCl Salt Form 2, ((1S,2S,4R)-4-{4-[(1S)-2,3-dihydro-1H-inden-1-ylamino]-7H-pyrrolo[2,3-d]pyrimidin-7-yl}-2-hydroxycyclopentyl)methyl sulfamate hydrochloride Form 2]	increased stability on storage				98.3%			98.2%	97.8%	88.6%
NS(=O)(=O)OC[C@@H]1C[C@@H](n2ccc3c(N[C@H]4CCc5ccccc54)ncnc32)C[C@@H]1O [free base (amorphous), ((1S,2S,4R)-4-{4-[(1S)-2,3-dihydro-1H-inden-1-ylamino]-7H-pyrrolo[2,3-d]pyrimidin-7-yl}-2-hydroxycyclopentyl)methyl sulfamate, reference compound]					96.0%			96.4%	94.5%	93.2%
NS(=O)(=O)OC[C@@H]1C[C@@H](n2ccc3c(N[C@H]4CCc5ccccc54)ncnc32)C[C@@H]1O.[K] [potassium salt (amorphous), potassium salt of ((1S,2S,4R)-4-{4-[(1S)-2,3-dihydro-1H-inden-1-ylamino]-7H-pyrrolo[2,3-d]pyrimidin-7-yl}-2-hydroxycyclopentyl)methyl sulfamate, reference compound]					96.9%			97.6%	88.7%	38.3%
